# Assay results: patent US10450260B2, “NO- and H2S-releasing compounds” (RESEARCH FOUNDATION OF THE CITY UNIVERSITY OF NEW YORK, priority 2011, dated 2019)
# System: HT-29 human colon cancer cells
# Test: MTT cell growth inhibition, HT-29
# Type: cell-based
# Conditions: Homo sapiens; HT-29, 24 h (Table 5); in combinations the IC50 of ASA with fixed concentrations of SNAP and/or ADT-OH; read-out: IC50 at 24 hours for HT-29 cell growth inhibition
# Method: HT-29, SW-480 and HCT-15 human colon adenocarcinoma, MIA PaCa-2 and BxPC-3 human pancreatic cancer, LNCAP human prostate cancer, A549 human lung cancer, MCF-7 (estrogen receptor positive), MDA-MB 231 and SK-BR-3 (estrogen receptor negative) human breast cancer, and Jurkats human leukemia cell lines were obtained from American Type Tissue Collection (Manassas, Va.). All cells lines were grown as monolayers except for the Jurkats which were grown in suspension. The pancreatic and breast cancer cells were grown in Dulbecco's modified Eagle's medium, the prostate, Jurkat, SW-480 and HCT-15 colon cells were grown in RPMI 1640 medium, the lung cells were grown in F-12 and the colon HT-29 cells were grown in McCoy 5A. All media were supplemented with 10% fetal calf serum (Invitrogen, Carlsbad, Calif.) penicillin (50 U/ml), and streptomycin (50 μg/ml) (Invitrogen, Carlsbad, Calif.). Cells were seeded on culture dishes at a density of 25×10^3 cells/cm^2 and incubated at 37° C. in 5% CO2 and 90% relative humidity. Single cell suspensions were obtained by trypsinization (0.05% trypsin/EDTA), and cells were counted using a hemocytometer. Viability was determined by the trypan blue dye exclusion method.
# Cell growth inhibitory effect of NOSH compounds were measured using a colorimetric MTT assay kit (Roche, Indianapolis, Ind.). Cancer cells were plated in 96-well plates at a density of 50,000 cells/well. The cells were incubated for 24 h with different concentrations of NOSH compounds. After the indicated time, 10 μl of MTT dye (3-[4,5-dimethylthiazol-2-yl]-2,5-diphenyl tetrazolium bromide, 5 mg/ml in phosphate buffered saline), was added to each well, and the plates were incubated for 2 hours at 37° C. Then, the media was aspirated, and add 100 μl of the solubilization solution (10% SDS in 0.01 M HCl) was added to each well to solubilize the formant crystals. The absorbance of the plates was measured on an ELISA reader at a wavelength of 570 nm. Each sample was performed in triplicate, and the entire experiment was repeated three times.
# HT-29 human colon cancer cells were obtained from American Type Tissue Collection (Manassas, Va.) and grown as monolayer in McCoy 5A media that was supplemented with 10% fetal calf serum (Invitrogen, Carlsbad, Ca.), penicillin (50 U/ml), and streptomycin (50 μg/ml) (Invitrogen, Carlsbad, Calif.).
# Growth inhibition was measured using a colorimetric MTT assay kit (Roche, Indianapolis, Ind.). Proliferation (PCNA) was assessed using an ELISA kit from Calbiochem, (La Jolla, Calif.). Cell cycle phase distributions and apoptosis of control and treated cells were determined as previously described. All methods are described in Chattopadhyay et al., Biochemical Pharmacology, 2012, 83(6), 715-722.
# HT-29, SW-480 and HCT-15 human colon adenocarcinoma, MIA PaCa-2 and BxPC-3 human pancreatic cancer, LNCAP human prostate cancer, A549 and H383 human lung cancer, MCF-7, MDA-MB 231 and SK-BR-3 human breast cancer and Jurkat T cell human leukemia cell lines were obtained from American Type Tissue Collection (Manassas, Va.) All cells lines were grown as monolayers except for the Jurkat T cells which were grown as suspension culture. The pancreatic and breast cancer cells were grown in Dulbecco's modified Eagle's medium, the prostate, Jurkat, SW-480 and HCT-15 colon cells were grown in RPMI 1640 medium, the lung cells were grown in F-12 and the colon HT-29 cells were grown in McCoy 5A. All media were supplemented with 10% fetal calf serum (Invitrogen, Carlsbad, Calif.) penicillin (50 U/ml), and streptomycin (50 μg/ml) (Invitrogen, Carlsbad, Calif.). Cells were seeded on culture dishes at a density of 25×10^3 cells/cm^2 and incubated at 37° C. in 5% CO2 and 90% relative humidity. Single cell suspensions were obtained by trypsinization (0.05% trypsin/EDTA), and cells were counted using a hemacytometer. The final DMSO concentration was adjusted in all media to 1%. Viability was determined by the trypan blue dye exclusion method. […]
row,IC50,Compound
1,530 ± 45 µM,"CC(=O)N[C@H](C(=O)O)C(C)(C)SN=O [SNAP, S-nitroso-N-acetyl-penicillamine, reference compound]"
2,26 ± 3 µM,"Oc1ccc(-c2cc(=S)ss2)cc1 [ADT-OH, 5-(4-hydroxyphenyl)-3H-1,2-dithiole-3-thione, reference compound]"

# Same assay, conditions: Homo sapiens; HT-29 colon cancer cells, 24 hours (Table 3); read-out: IC50 at 24 hours for cell growth inhibition
row,IC50,Compound
1,10 ± 2 µM,"CC(=O)Oc1ccccc1C(=O)Oc1ccc(CO[N+](=O)[O-])cc1 [p-NO-ASA, 2-(acetyloxy)benzoic acid 4-(nitrooxymethyl)phenyl ester, reference compound]"
2,8 ± 3 µM,"CC(=O)Oc1ccccc1C(=O)Oc1ccccc1CO[N+](=O)[O-] [o-NO-ASA, 2-(acetyloxy)benzoic acid 2-(nitrooxymethyl)phenyl ester, reference compound]"
3,185 ± 15 µM,"CC(=O)Oc1ccccc1C(=O)Oc1cccc(CO[N+](=O)[O-])c1 [m-NO-ASA, 2-(acetyloxy)benzoic acid 3-(nitrooxymethyl)phenyl ester, reference compound]"

row,Compound,IC50
1,"CC(=O)Oc1ccccc1C(=O)OCCCOO[N+](=O)[O-] [aliphatic-NO-ASA, 3-(nitroperoxy)propyl 2-acetoxybenzoate, reference compound]",750 ± 35 µM
2,"CC(=O)Oc1ccccc1C(=O)Oc1ccc(-c2cc(=S)ss2)cc1 [HS-ASA, 4-(5-thioxo-5H-1,2-dithiol-3-yl)-phenyl 2-acetoxybenzoate, reference compound]",4 ± 0.5 µM
